Measured values: patent US20040116346A1, “Affinity small molecules for the EPO receptor” (priority 2002, published 2004)
Entries after “also recorded” stand apart in the source; their conditions may differ.

Key:
[1] = test system: cortical neurons isolated from embryonic day 18 rats; experiment: glutamate-induced neuronal death in cultured cortical neurons; type: cell-based, rat; conditions: 24 hours pre-treatment, 300 uM glutamate for 24 hours
Method: Primary cultured cells were used as a model to evaluate the subject small molecule effect on CNS. Glutamate neurotoxicity can be most directly studied using neurons prepared from the brain at the late embryonic stage and subsequently cultured for maturation. To examine the effect of the subject small molecules (E5A24 and E5A29) on glutamate-induced neuronal death, cortical neurons isolated from embryonic day 18 rats, were cultured for 10 days. Subsequently, neurons were treated for 24 hours with or without the subject small molecules, and further exposed to 300 uM glutamate for 24 hours. After glutamate was washed out, the cells were cultured for another 24 hours. During the glutamate challenge and subsequent culture, the subject small molecules were absent. Finally, the cell viability was examined.

[2] = test system: Mouse or human bone marrow cells; experiment: Formation of erythroid colonies (CFU-e, BFU-e) from bone marrow in methylcellulose; type: cell-based; conditions: mouse and human bone marrow
Method: Mouse or human bone marrow cells were stimulated in methylcellulose for 7 days (mouse) or 14 days (human) with non-peptide EPO-R modulators. Formation of erythroid colonies was observed. (See FIGS. 6 to 8)
(1) Dilute human bone marrow 1:1 with sterile PBS. (2) Slowly layer bone marrow into 50 ml tubes containing 20 ml of LSM Lymphocyte separation medium (ICN/Cappel—cat #50494). 50 ml bone marrow will yield 2 tubes. (3) Spin tubes at 2000 rpm for 30 minutes with brake off. (4) Slowly take out the middle layer using a 10 ml pipette and transfer into a new 50 ml tube. (5) Add PBS +0.5% BSA +5 mM EDTA to tube for washing. (6) Spin tube for 5 minutes at speed 4 with brake on. (7) Repeat wash step 2 more times. (8) After 3rd wash, resuspend pellet in SF Iscoves' MDM medium. (9) Count by diluting cells in 3% acetic acid. (10) Dilute cells to desired concentration (5×10^5 cells/ml) and seed onto methylcellulose.
(1) Tubes containing 3.0 ml of methylcellulose medium (Stemcell Technology, cat #H4230) supplemented with 50 ng/ml hSCF are prepared. (Alternatively the methylcellulose could be supplemented with 50 ng/ml hSCF, 20 ng/ml of hIL-3 and hIL-6). (2) Compounds or EPO of desired concentrations are added to the tubes. […] Colonies are scored on day twelve.
Bone marrow cells were isolated from mouse femurs. […] The colonies were scored on day seven. […]

TF-1 and UT-7 cells = experiment: biological testing in cell lines (cell proliferation assay and cell signaling assay); type: cell-based
Excerpt: Compounds identified in the initial screen were further tested for their biological activity in two assays: a cell proliferation assay and a cell signaling assay in TF-1 and UT-7 cells. The hit rate in cell proliferation was 0.16%; hit rate in cell signaling was 0.25%.
At the end of the biological testing in cell lines TF-1 and UT-7, E4, E5, E5 analogs and E6 molecules were some of the compounds identified as showing the best activity.
Compounds identified in the initial screen were further tested for their biological activity in two assays: a cell proliferation assay and a cell signaling assay in TF-1 cells. The hit rate in cell proliferation was 0.16%; hit rate in cell signaling was 0.25%.
At the end of the biological testing in cell line, E4, E5, E5 analog, and E6 molecules were some of the compounds identified as showing the best activity.

[3] = test system: carboplatin-treated 8 week old C57BL mice; experiment: Carboplatin induced anemia model (hematocrit); type: in vivo, mouse
Method: Mice were treated with Carboplatin agent (available from Sigma, used regularly in chemotherapy) and a drop in hematocrit was induced. […] (FIGS. 9-11)
Determination of Effect of Non-peptide EPO-R Binding Small Molecule on Hematocrit in Carboplatin-Induced Anemia in 8 Week C57BI Male Mice
Preparation of injection solutions: Vehicle—Saline with 0.1 mg/mL BSA; Add 30 mg of BSA to 300 mL Saline; Vacuum filter under sterile conditions in laminar flow hood; Aliquot the saline (0.1 mg/mL BSA) solution into mini-sorp tubes. At least 41×7 mL aliquots should be prepared. Place caps on the tubes and store refrigerated at 4° C.;
Carboplatin—Dose of 120 mg/kg: Calculations for single injection given to 36 male mice (8 wks old˜25 g): […]×0.025 kg×36 mice=108 mg; Injections are delivered i.p. in a volume of 0.5 cc/mouse=0.5 cc/mouse×36 mice=18 cc; Carboplatin at 6 mg/mL for 36 mice: 108 mg/18 cc.; 120 mg/20 cc; On day of injection, add 120 mg carboplatin (Sigma #C2538) to 20 cc saline in a 100 cc beaker containing a stirring bar. Cover beaker with parafilm. Mix until the carboplatin has completely dissolved.
11 nmole/kg/mouse/day×0.025 kg×12 mice=3.3 nmoles/day; Injections are delivered i.p. in a volume of 0.5 cc/mouse/day=0.5 cc/mouse/day×12 mice=6 cc/day; non-peptide EPO-R binding small molecule for […]: 3.3 nmoles/6 cc each day: 3.85 nmole/7 cc each day; non-peptide EPO-R binding small molecule aliquot at 2 mM=2 nmole/uL; 3.85 nmole per day in 7 cc (0.55 nmole/mL); Therefore: 3.85 nmole divided by 2 nmole/uL stock=1.925 uL at 2 mM; Prepare in advance at least 10 aliquots of non-peptide EPO-R binding small molecule at 2 mM in small microfuge tubes, each with a volume of 2 uL. Freeze these aliquots; On each day of injections, add 1 thawed aliquot of the non-peptide EPO-R binding small molecule at 2 mM containing a 2 uL volume to a tube containing 7 cc of sterile saline (0.1 mg/mL BSA). […]

[4] = test system: P-19 cells (a neural-like embryonal carcinoma cell line); experiment: anti-apoptotic effect in P-19 cells upon withdrawal of serum; type: cell-based; conditions: treated 24 hours prior to serum withdrawal; serum withdrawn for 48 hours
Method: Experiments were performed according to the described protocol. The anti-apoptotic effect of the subject small molecules was evaluated in P-19 cells (a neural-like embryonal carcinoma cell line) that undergo apoptosis upon withdrawal of serum. Briefly, cells were treated with small molecules for 24 hours prior to serum withdrawal. Serum was withdrawn for 48 hours in the presence or absence of a subject small molecule (EM5 and E5A24). At the end of that period, cell survival was evaluated. […] This Figure is representative of the experiment and of the subject small molecules. The experiments were performed according to literature procedures (Siren et. al., Proc. Nat. Acad. Sci. 98, 4044, 2001). Cell survival was determined according to the protocol described for cellular proliferation.

[5] = test system: Bcl-xL protein in UT-7 and TF-1 cells; experiment: up-regulation of Bcl-xL expression (immunoprecipitation, western blot); type: cell-based
Method: When the subject compounds were tested for anti-apoptotic effect was evaluated, these antibodies were used: Anti-Bcl-XL/s antibody (Santa Cruz Biotechnology, SC-1041), Anti-Bcl-XL antibody (Santa Cruz Biotechnology, SC8392)
A number of molecules of the subject invention were evaluated in in vitro systems that reflect the condition of cerebral ischemia and metabolic stress. Firstly, it is known that one of the mechanisms by which EPO prevents neuronal apoptosis is by up-regulating the expression levels of Bcl-x1 protein, which is a well-described anti-apoptotic protein. Thus, cells-lines that are known to be EPO responsive (UT-7 and TF-1, used in previous studies) were used as a cellular system to examine the small molecules' anti-apoptotic activity through EPO-R.
The evaluation was performed by starving the cells, stimulating the cells with compounds at appropriate concentrations (or no stimulation for control samples) and immunoprecipitating the cell lysates with antibody specific to both forms (short and long) of Bcl-xL protein. The amount of Bcl-xL (long protein form, known to have anti-apoptotic activity) protein was evaluated by western blot analysis.

EPO-R modulating domain = target: T1, EPO-R modulating domain (Homo sapiens, UniProt P19235); conditions: cited from earlier work
T1 sequence (P19235 25-508): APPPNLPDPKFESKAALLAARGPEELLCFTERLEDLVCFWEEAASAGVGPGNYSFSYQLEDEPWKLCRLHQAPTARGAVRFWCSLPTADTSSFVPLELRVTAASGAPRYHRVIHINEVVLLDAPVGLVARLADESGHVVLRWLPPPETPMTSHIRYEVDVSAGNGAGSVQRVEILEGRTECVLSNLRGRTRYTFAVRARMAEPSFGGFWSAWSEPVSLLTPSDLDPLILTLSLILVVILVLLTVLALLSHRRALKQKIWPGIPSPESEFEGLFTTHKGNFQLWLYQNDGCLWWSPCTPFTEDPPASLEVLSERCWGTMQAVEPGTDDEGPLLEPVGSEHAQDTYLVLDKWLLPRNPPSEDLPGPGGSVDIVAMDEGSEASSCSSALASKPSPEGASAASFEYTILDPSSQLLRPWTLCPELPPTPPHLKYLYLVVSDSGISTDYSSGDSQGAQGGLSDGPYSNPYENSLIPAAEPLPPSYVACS

Cc1n[nH]c2c1C(c1ccco1)C1=C(CC(C)(C)CC1=O)N2 (stereo not drawn) [Compound E5A29]
cell survival / glutamate induced neuronal death [1]: prevented glutamate induced neuronal death in a dose-responsive manner; also recorded: increased cell survival
increase of cell survival after glutamate challenge [1]: 60%

Cn1ncc(S(=O)Oc2ccccc2)c(Cl)c1=O (stereo not drawn) [Compound E6]
CFU-e formation compared with EPO [2]: stimulate CFU-e formation to the same extent as EPO
maximum activity compared to EPO natural hormone (TF-1 and UT-7 cells; cell line (TF-1 cells)): maximum activity comparable to that of the maximum activity of EPO
maximum activity compared to EPO natural hormone (TF-1 and UT-7 cells; cell lines TF-1 and UT-7, in the presence of low levels of EPO): maximum activity comparable to that of the maximum activity of EPO
cooperative effect with EPO on hematocrit levels ([3]; compound given i.p.): cooperative effect
hematocrit levels in animals treated with carboplatin ([3]; mouse, in vivo): restore hematocrit levels

Cc1cc(NCC2CC2)n2nc(Nc3cc(Cl)ccc3C)nc2n1 [EM5]
cell survival / viability after withdrawal of serum [4]: protect cells from apoptosis; also recorded: increased cell viability
Bcl-xL expression ([5]; TF-1 cells): up-regulation of Bcl-xL expression
Bcl-xL expression ([5]; UT-7 cells): up-regulation of Bcl-xL expression
up-regulation of Bcl-xL protein ([5]; both cell lines (UT-7 and TF-1)): induced up-regulation of Bcl-xL protein in a dose-responsive manner

QRVEILEGRTECVLSNLRGRTRY (listed as Homo sapiens) [SEQ ID NO:1]
modulation of the activity of the EPO-R (EPO-R modulating domain): modulation of the activity of the EPO-R in the presence or absence of the ligand
